{
  "source": "patent US20220339180A1",
  "about": "“Methods And Compositions For Treating Viral Diseases Using Combination Of Drugs” (priority 2021, published 2022)",
  "key": {"CoV-2 RdRp": {"biological_target": "CoV-2 RdRp (Severe acute respiratory syndrome coronavirus 2, UniProt P0DTD1)", "type": "biochemical, SARS-CoV-2"}, "human Akt2 [1]": {"biological_target": "T1, human Akt2 (Homo sapiens, UniProt P31751)", "details": "read-out: Km for ATP; human Akt2, previously reported studies; cited from earlier work"}, "human Akt2 [2]": {"biological_target": "T1, human Akt2", "assay": "ADP-Glo Kinase assay, human Akt2", "type": "biochemical", "details": "500 nM compound, excess of ATP"}, "SARS-CoV-2": {"test_system": "SARS-CoV-2", "type": "cell-based"}, "[3]": {"substrate": "Nc1ncnc2c1ncn2[C@@H]1O[C@H](COP(=O)(O)OP(=O)(O)OP(=O)(O)O)[C@@H](O)[C@H]1O", "assay": "purified protein, by the assay type", "details": "other: human Akt2"}},
  "note": "Read-outs that look alike come from different tables or passages of the source.",
  "data": [
    {"molecule": "CC(Cc1ccc(O)c(O)c1)C(C)Cc1ccc(O)c(O)c1", "note": "(stereo not drawn) [compound 4534, Nordihydroguaiaretic acid]", "values": [
      {"measurement": "inhibition of kinase like activity of CoV-2 RdRp", "setting": "CoV-2 RdRp", "value": "failed to inhibit"}
    ]},
    {"molecule": "Nc1ncnc2c1ncn2[C@@H]1O[C@H](COP(=O)(O)OP(=O)(O)OP(=O)(O)O)[C@@H](O)[C@H]1O", "note": "[ATP, Adenosine triphosphate]", "values": [
      {"measurement": "Km", "setting": "human Akt2 [1]", "value": "~350", "unit": "µM"}
    ]},
    {"molecule": "CNC(=O)c1cc(Oc2ccc(NC(=O)Nc3ccc(Cl)c(C(F)(F)F)c3)cc2)ccn1", "note": "[Sorafenib]", "values": [
      {"measurement": "inhibition of kinase activity of human Akt2", "setting": "human Akt2 [2]", "value": "significantly inhibited"},
      {"measurement": "cell survival of SARS-CoV-2 infected epithelial cells", "setting": "SARS-CoV-2; 1, 5, 25 and 50 μM, concentrations similar to Remdesivir", "value": "improves cell survival"},
      {"measurement": "reduction in the infection", "setting": "SARS-CoV-2; 1-50 μM, Remdesivir as control", "value": "significant reduction in the infection"},
      {"measurement": "clearing of virus from infected cells, single agent", "setting": "SARS-CoV-2; Sorafenib 4 μM or remdesivir 1 μM alone", "value": "have effect to clear the virus"},
      {"measurement": "viral load", "setting": "SARS-CoV-2; ex-vivo SARS-CoV-2 infection in cell line", "value": "significantly reduces viral load"}
    ]},
    {"molecule": "NC(=O)c1ncn([C@@H]2O[C@H](COP(=O)(O)OP(=O)(O)OP(=O)(O)O)[C@@H](O)[C@H]2O)n1", "note": "[compound 122108, Ribavirin 5′-triphosphate]", "values": [
      {"measurement": "inhibition of kinase like activity of CoV-2 RdRp", "setting": "CoV-2 RdRp; 500 nM compound, excess of ATP", "value": "very little effects"},
      {"measurement": "inhibition of kinase like activity of CoV-2 RdRp", "setting": "CoV-2 RdRp; 1000 nM compound", "value": "conspicuous inhibitions"}
    ]},
    {"molecule": "CN(C)S(=O)(=O)c1ccc2c(c1)/C(=C/c1cc3c([nH]1)CCCC3)C(=O)N2", "note": "[SU6656]", "values": [
      {"measurement": "inhibition of kinase like activity of CoV-2 RdRp", "setting": "CoV-2 RdRp", "value": "significantly abrogated"},
      {"measurement": "inhibition of kinase activity of human Akt2", "setting": "human Akt2 [2]", "value": "significantly inhibited"}
    ]},
    {"molecule": "human Akt2 (Homo sapiens) (protein) MNEVSVIKEGWLHKRGEYIKTWRPRYFLLKSDGSFIGYKERPEAPDQTLPPLNNFSVAECQLMKTERPRPNTFVIRCLQWTTVIERTFHVDSPDEREEWMRAIQMVANSLKQRAPGEDPMDYKCGSPSDSSTTEEMEVAVSKARAKVTMNDFDYLKLLGKGTFGKVILVREKATGRYYAMKILRKEVIIAKDEVAHTVTESRVLQNTRHPFLTALKYAFQTHDRLCFVMEYANGGELFFHLSRERVFTEERARFYGAEIVSALEYLHSRDVVYRDIKLENLMLDKDGHIKITDFGLCKEGISDGATMKTFCGTPEYLAPEVLEDNDYGRAVDWWGLGVVMYEMMCGRLPFYNQDHERLFELILMEEIRFPRTLSPEAKSLLAGLLKKDPKQRLGGGPSDAKEVMEHRFFLSINWQDVVQKKLLPPFKPQVTSEVDTRYFDDEFTAQSITITPPDRYDSLGLLELDQRTHFPQFSYSASIRE", "values": [
      {"measurement": "Km", "setting": "[3]", "value": 300, "unit": "µM"}
    ]}
  ]
}
